Test results from ChEMBL document CHEMBL1201862, “PubChem BioAssay data set” (2004).
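Protocol summary: plate cells (96-well), add compound at 5 concentrations, incubate 48 h, interpolate endpoints linearly. GI50 is the concentration that inhibits growth by half.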 Calls of active or inactive are those of the source. Cut-off read from the data, not from the text of the source: active = GI50 up to about 1.1 µM and inactive = higher.

Tests used:
Assay in all cases: NCI anticancer screen, dose series, 48 h
SF-268 = system: SF-268
SK-MEL-28 = system: SK-MEL-28
HL-60 = system: HL-60
NCI-H226 = system: NCI-H226
DMS-114 = system: DMS-114
M14 = system: M14
HT-29 = system: HT-29
A498 = system: A498
IGROV-1 = system: IGROV-1
SF-539 = system: SF-539
NCI-H460 = system: NCI-H460
LOX IMVI = system: LOX IMVI
KM12 = system: KM12
HOP-92 = system: HOP-92
UACC-62 = system: UACC-62
SN12C = system: SN12C
U-251 = system: U-251
MDA-MB-435 = system: MDA-MB-435
BT-549 = system: BT-549
MDA-N = system: MDA-N

Structure (SMILES)	GI50 (SF-268)	GI50 (SK-MEL-28)	GI50 (HL-60)	GI50 (NCI-H226)	GI50 (DMS-114)	GI50 (M14)	GI50 (HT-29)	GI50 (A498)	GI50 (IGROV-1)	GI50 (SF-539)	GI50 (NCI-H460)	GI50 (LOX IMVI)	GI50 (KM12)	GI50 (HOP-92)	GI50 (UACC-62)	GI50 (SN12C)	GI50 (U-251)	GI50 (MDA-MB-435)	GI50 (BT-549)	GI50 (MDA-N)
CCOC(=O)c1c2ccc(/C=C/c3ccccn3)ccc-2c(C(=O)OCC)c1N	0.091 µM (active)	0.361 µM (active)	89.1 µM (inactive)	> 100 µM (inactive)	> 100 µM (inactive)	> 100 µM (inactive)	> 100 µM (inactive)	24.8 µM (inactive)	> 100 µM (inactive)	88.9 µM (inactive)	89.1 µM (inactive)	> 100 µM (inactive)	> 100 µM (inactive)	> 100 µM (inactive)	> 100 µM (inactive)	–	–	–	–	–
C=C(Br)N(CC)CC	> 100 µM (inactive)	> 100 µM (inactive)	> 100 µM (inactive)	> 100 µM (inactive)	> 100 µM (inactive)	> 100 µM (inactive)	> 100 µM (inactive)	> 100 µM (inactive)	> 100 µM (inactive)	> 100 µM (inactive)	> 100 µM (inactive)	> 100 µM (inactive)	> 100 µM (inactive)	> 100 µM (inactive)	> 100 µM (inactive)	> 100 µM (inactive)	> 100 µM (inactive)	–	–	–
CC1=CC(=O)NCCN1C	> 100 µM (inactive)	> 100 µM (inactive)	45.9 µM (inactive)	> 100 µM (inactive)	> 100 µM (inactive)	> 100 µM (inactive)	> 100 µM (inactive)	> 100 µM (inactive)	> 100 µM (inactive)	> 100 µM (inactive)	> 100 µM (inactive)	62.7 µM (inactive)	> 100 µM (inactive)	> 100 µM (inactive)	> 100 µM (inactive)	> 100 µM (inactive)	> 100 µM (inactive)	–	–	–
C/C(CC(=O)Nc1ccccc1[N+](=O)[O-])=N\NC(N)=O	> 100 µM (inactive)	> 100 µM (inactive)	> 100 µM (inactive)	> 100 µM (inactive)	> 100 µM (inactive)	> 100 µM (inactive)	> 100 µM (inactive)	–	> 100 µM (inactive)	> 100 µM (inactive)	> 100 µM (inactive)	> 100 µM (inactive)	> 100 µM (inactive)	> 100 µM (inactive)	> 100 µM (inactive)	–	> 100 µM (inactive)	–	–	–
OCc1c(-c2cccc3ccccc23)sc(-c2cccc3ccccc23)c1CO	13.2 µM (inactive)	10.4 µM (inactive)	15.5 µM (inactive)	16.7 µM (inactive)	9.1 µM (inactive)	14.5 µM (inactive)	15.3 µM (inactive)	–	14.1 µM (inactive)	15.3 µM (inactive)	14.3 µM (inactive)	14.6 µM (inactive)	12.4 µM (inactive)	15.1 µM (inactive)	11.3 µM (inactive)	13.5 µM (inactive)	12.2 µM (inactive)	–	–	–
COc1ccc(C(=O)O)c(Cc2cccc3ccccc23)c1	> 100 µM (inactive)	> 100 µM (inactive)	> 100 µM (inactive)	> 100 µM (inactive)	> 100 µM (inactive)	> 100 µM (inactive)	> 100 µM (inactive)	–	> 100 µM (inactive)	–	> 100 µM (inactive)	> 100 µM (inactive)	> 100 µM (inactive)	–	85.9 µM (inactive)	> 100 µM (inactive)	> 100 µM (inactive)	–	–	–
O=C(CC(=O)c1cccc2ccccc12)C(=O)Nc1ccc(Cl)cc1	> 100 µM (inactive)	–	> 100 µM (inactive)	> 100 µM (inactive)	> 100 µM (inactive)	> 100 µM (inactive)	> 100 µM (inactive)	> 100 µM (inactive)	> 100 µM (inactive)	> 100 µM (inactive)	> 100 µM (inactive)	> 100 µM (inactive)	> 100 µM (inactive)	19.6 µM (inactive)	> 100 µM (inactive)	> 100 µM (inactive)	> 100 µM (inactive)	–	–	–
CC[P+](C)(C)c1ccccc1	> 100 µM (inactive)	> 100 µM (inactive)	–	–	> 100 µM (inactive)	> 100 µM (inactive)	> 100 µM (inactive)	> 100 µM (inactive)	> 100 µM (inactive)	> 100 µM (inactive)	> 100 µM (inactive)	> 100 µM (inactive)	> 100 µM (inactive)	–	> 100 µM (inactive)	> 100 µM (inactive)	> 100 µM (inactive)	–	–	–
c1ccc(NC[Si]23OCCN(CCO2)CCO3)cc1	> 100 µM (inactive)	> 100 µM (inactive)	–	> 100 µM (inactive)	> 100 µM (inactive)	–	> 100 µM (inactive)	> 100 µM (inactive)	> 100 µM (inactive)	> 100 µM (inactive)	> 100 µM (inactive)	–	> 100 µM (inactive)	> 100 µM (inactive)	> 100 µM (inactive)	> 100 µM (inactive)	> 100 µM (inactive)	–	–	–
C#CCN(Cc1ccc2nc(-c3ccccc3)c(Cl)nc2c1)c1ccc(Cl)c(Cl)c1	> 100 µM (inactive)	> 100 µM (inactive)	> 100 µM (inactive)	–	> 100 µM (inactive)	> 100 µM (inactive)	> 100 µM (inactive)	> 100 µM (inactive)	> 100 µM (inactive)	> 100 µM (inactive)	> 100 µM (inactive)	> 100 µM (inactive)	> 100 µM (inactive)	> 100 µM (inactive)	> 100 µM (inactive)	> 100 µM (inactive)	> 100 µM (inactive)	–	–	–
CC(C)(Oc1ccc2c(=O)cc(-c3ccc(Cl)cc3)oc2c1)C(=O)Nc1c(Cl)cccc1Cl	> 100 µM (inactive)	> 100 µM (inactive)	> 100 µM (inactive)	–	> 100 µM (inactive)	> 100 µM (inactive)	> 100 µM (inactive)	> 100 µM (inactive)	> 100 µM (inactive)	> 100 µM (inactive)	> 100 µM (inactive)	> 100 µM (inactive)	> 100 µM (inactive)	> 100 µM (inactive)	> 100 µM (inactive)	–	> 100 µM (inactive)	–	–	–
CO[C@H](C(=O)O[C@H]1C(=O)N2CCC3CCC1C32C)c1ccccc1 (some centres undefined)	> 100 µM (inactive)	> 100 µM (inactive)	> 100 µM (inactive)	> 100 µM (inactive)	> 100 µM (inactive)	> 100 µM (inactive)	> 100 µM (inactive)	–	> 100 µM (inactive)	> 100 µM (inactive)	> 100 µM (inactive)	> 100 µM (inactive)	> 100 µM (inactive)	–	> 100 µM (inactive)	> 100 µM (inactive)	> 100 µM (inactive)	–	–	–
CC(=O)Oc1c2c(c(OC(C)=O)c3c1n(C(C)=O)c1ccccc1n3C(C)=O)n(C(C)=O)c1ccccc1n2C(C)=O	7.05 µM (inactive)	2.89 µM (inactive)	2.67 µM (inactive)	–	2.59 µM (inactive)	4.44 µM (inactive)	3.18 µM (inactive)	18.4 µM (inactive)	> 10 µM (inactive)	13.4 µM (inactive)	3.68 µM (inactive)	2.56 µM (inactive)	3.76 µM (inactive)	–	8.73 µM (inactive)	3.27 µM (inactive)	10.9 µM (inactive)	–	–	–
COc1cc(C2c3cc4c(cc3C(NCC(O)CO)C3COC(=O)[C@H]23)OCO4)cc(OC)c1OC (some centres undefined)	0.374 µM (active)	0.617 µM (active)	0.0785 µM (active)	0.289 µM (active)	0.0733 µM (active)	0.533 µM (active)	0.34 µM (active)	–	> 100 µM (inactive)	0.146 µM (active)	0.435 µM (active)	0.146 µM (active)	0.217 µM (active)	–	0.0973 µM (active)	0.466 µM (active)	0.236 µM (active)	–	–	–
COc1cc2cnc3c4cc(OCc5ccccc5)ccc4ccc3c2cc1OC	19.4 µM (inactive)	38.3 µM (inactive)	1.66 µM (inactive)	25.8 µM (inactive)	11.4 µM (inactive)	19.8 µM (inactive)	25.1 µM (inactive)	–	28.1 µM (inactive)	34 µM (inactive)	19 µM (inactive)	29.6 µM (inactive)	29.8 µM (inactive)	16.6 µM (inactive)	39.5 µM (inactive)	73.3 µM (inactive)	24.3 µM (inactive)	–	–	–
O=C(NC1C(=O)NNC1c1cccc([N+](=O)[O-])c1)c1ccccc1 (centres undefined)	> 100 µM (inactive)	> 100 µM (inactive)	90.8 µM (inactive)	> 100 µM (inactive)	> 100 µM (inactive)	> 100 µM (inactive)	> 100 µM (inactive)	–	> 100 µM (inactive)	–	> 100 µM (inactive)	> 100 µM (inactive)	> 100 µM (inactive)	> 100 µM (inactive)	> 100 µM (inactive)	> 100 µM (inactive)	> 100 µM (inactive)	–	–	–
[O-][S+]1SC(=S)C2C=CC=NC21 (centres undefined)	19.5 µM (inactive)	> 100 µM (inactive)	> 100 µM (inactive)	22.2 µM (inactive)	–	15.3 µM (inactive)	16.1 µM (inactive)	27.6 µM (inactive)	20.1 µM (inactive)	16 µM (inactive)	17.4 µM (inactive)	14.9 µM (inactive)	87.7 µM (inactive)	15.8 µM (inactive)	21.3 µM (inactive)	14.8 µM (inactive)	18 µM (inactive)	> 100 µM (inactive)	19 µM (inactive)	14.7 µM (inactive)
